In US20170107577A1, “Determining Cancer Aggressiveness, Prognosis and Responsiveness to Treatment” (THE COUNCIL OF THE QUEENSLAND INSTITUTE OF MEDICAL RESEARCH, priority 2014, published 2017):
Entries after “also recorded” stand apart in the source; their conditions may differ. Where two headings read alike, the source gives them in different places.

Tests used:
Assay type in all cases: cell-based
[1] = tested on: breast cancer cell lines; experiment: Aurora kinase inhibitor sensitivity of breast cancer cell lines by Agro, TN and iBCR score (two published studies)
Procedure: Two studies which treated breast cancer cell lines with Aurora kinase inhibitors were analyzed based on the Agro, TN and the iBCR score for these cell lines.

[2] = tested on: breast cancer cell lines (TNBC and non-TNBC); experiment: Cell survival (CellTiter 96 MTS/MTA assay) of breast cancer cell lines after drug treatment; details: 6 days; for survival of cells, combination of TTKi with docetaxel: very low (sub-lethal) doses, TNBC cell lines which overexpress TTK vs cell lines which do not
Procedure: FIG. 5: Therapeutic targets in the aggressiveness gene list. (A) The TNBC cell lines, MDA-MB-231, SUM159PT and Hs578T were treated with control siRNA (Scrambled, Sc CTRL) or siRNA targeting the specified genes and the survival of these cells was compared on day 6. Data shown is the average from the three cell lines where each cell line was treated in triplicate. * p<0.05, ** p<0.01 and *** <0.001 from One-Way ANOVA analysis performed using GraphPad® Prism. (B) A panel of breast cancer cell lines was used to prepare lysates for immunoblotting of TTK. Tubulin was used as the loading control. (C) Dose response curves for the treatment of breast cancer cell lines in the absence or presence of escalating doses of the TTK inhibitor (TTKi) AZ3146. The survival of cells was measured using the CellTitre® MTS/MTA assay carried out 6 days after treatment. Percentage survival (n=3 per dose) was calculated as the percentage of the signal from treated cells to that from control cells. […]
FIG. 7: TTK associates with aggressive subtypes and is a therapeutic target. […] The survival of cells was measured using the MTS/MTA assay as described in Methods. *** p<0.001 comparing the combination to single agents and to non-TNBC cell lines from Two-Way Anova in GraphPad® Prism. […]
Breast cancer cell lines were obtained from ATCC™ (VA, USA) and cultured as per ATCC™ instructions. […] Six days after siRNA knockdown or after drug treatments the survival of cells in comparison to control was determined using the CellTiter 96® Assay as per manufacturer instructions (Promega Corporation, WI, USA). For immunoblotting, standard protocols were used and membranes were probed with antibodies against TTK (anti-MPS1 mouse monoclonal antibody [N1] ab11108 (Abcam, Cambridge), and γ-tubulin (Sigma-Aldrich®) then developed using chemiluminescence reagent plus (Milipore, MA, USA). Flow cytometry to quantify apoptosis was performed using Annexin V-Alexa488 and 7-AAD (Life Technologies) as per manufacturer instruction using BD FACSCanto II™ flow cytometer (BD Biosciences, CA, USA).

[3] = tested on: MDA-MB-231 cells; experiment: Apoptosis assay by flow cytometry (Annexin V / 7-AAD); details: MDA-MB-231, collected at 96 hours
Description: FIG. 7: TTK associates with aggressive subtypes and is a therapeutic target. (A) Kaplan-Meier survival curves are shown for Grade 3 tumors, lymph node positive patients (LN^+) and LN^+ patients with grade 3 tumors. Log-rank Test and p-value were used for these survival curves. For patients with TNBC, and HER2, survival was statistically significant using the Gehan-Breslow-Wilcoxon test (p-values marked by asterisks) which gives more weight to deaths at early time points. […] Survival curves and statistical analyses were performed using GraphPad® Prism. (B) TNBC and non-TNBC cell lines were treated for 6 days with the specified concentrations of docetaxel (doc) alone, TTK inhibitor (TTKi) alone of the combinations. The survival of cells was measured using the MTS/MTA assay as described in Methods. *** p<0.001 comparing the combination to single agents and to non-TNBC cell lines from Two-Way Anova in GraphPad® Prism. (C) MDA-MB-231 cells were treated with docetaxel or TTKi alone or in combination and collected at 96 hours to perform apoptosis assays by flow cytometry. […]
Breast cancer cell lines were obtained from ATCC™ (VA, USA) and cultured as per ATCC™ instructions. […] Six days after siRNA knockdown or after drug treatments the survival of cells in comparison to control was determined using the CellTiter 96® Assay as per manufacturer instructions (Promega Corporation, WI, USA). […]

[4] = high iBCR score breast cancer cell lines, read-out: IC50, high iBCR score cell lines
[5] = low iBCR score breast cancer cell lines, read-out: IC50, low iBCR score cell lines

| Molecule | IC50 [1, 4] [µM] | IC50 [1, 5] [µM] | survival of cells, combination of TTKi with docetaxel [2] | apoptotic cell death, combination of TTKi with docetaxel [3] | sensitivity (survival of cells) to the TTK inhibitor ([2]; panel of breast cancer cell lines, TNBC cell lines vs other cell lines) |
| --- | --- | --- | --- | --- | --- |
| Cc1csc(-c2nnc(Nc3ccc(Oc4ncccc4-c4ccnc(N)n4)cc3)c3ccccc23)c1 [AMG 900] | 0.0003 | 0.0007 | – | – | – |
| Cc1cc(Nc2cc(N3CCN(C)CC3)nc(/C=C/c3ccccc3)n2)n[nH]1 [ENMD-2076] | 1.4 | 5.9 | – | – | – |
| CC(=O)O[C@@]12CO[C@@H]1C[C@H](O)[C@@]1(C)C(=O)[C@H](O)C3=C(C)[C@@H](OC(=O)[C@H](O)[C@@H](NC(=O)OC(C)(C)C)c4ccccc4)C[C@@](O)([C@@H](OC(=O)c4ccccc4)[C@H]21)C3(C)C [docetaxel] | – | – | synergized | induced apoptotic cell death | – |
| AZ3146 | – | – | synergized with docetaxel | induced apoptotic cell death | effective against TNBC cell lines; also recorded: TNBC cell lines were more sensitive |
